Reference: US20250171462A1 (NICO Therapeutics, Inc., priority 2022, published 2025)
Like-named read-outs stand apart in the source and are kept apart here.

Molecular target: T1, full-length SARM1 (FL-SARM1) (Homo sapiens, UniProt Q6SZW1)
T1 sequence (Q6SZW1 28-724): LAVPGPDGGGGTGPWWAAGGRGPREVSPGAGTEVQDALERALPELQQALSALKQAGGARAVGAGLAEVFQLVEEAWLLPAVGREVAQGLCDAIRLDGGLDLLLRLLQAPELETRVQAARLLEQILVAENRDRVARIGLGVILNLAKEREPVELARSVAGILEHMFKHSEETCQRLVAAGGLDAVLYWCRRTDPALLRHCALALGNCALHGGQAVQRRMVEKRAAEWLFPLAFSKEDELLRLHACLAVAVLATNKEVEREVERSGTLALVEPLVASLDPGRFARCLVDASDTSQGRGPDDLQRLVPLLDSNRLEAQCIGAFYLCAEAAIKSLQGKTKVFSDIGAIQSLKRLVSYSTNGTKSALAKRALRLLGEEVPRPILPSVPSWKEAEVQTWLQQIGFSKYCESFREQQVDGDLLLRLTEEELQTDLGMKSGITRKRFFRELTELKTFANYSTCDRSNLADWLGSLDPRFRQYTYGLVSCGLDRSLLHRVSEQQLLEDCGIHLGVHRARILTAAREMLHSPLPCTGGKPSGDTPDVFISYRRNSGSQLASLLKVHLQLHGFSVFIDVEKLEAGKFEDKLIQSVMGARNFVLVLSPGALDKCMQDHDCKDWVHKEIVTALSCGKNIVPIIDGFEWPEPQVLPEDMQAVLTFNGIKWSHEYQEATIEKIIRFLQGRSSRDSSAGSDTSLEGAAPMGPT
Experiment: FL-SARM1 cellular lysate assay (NAD/NADH-Glo detection of remaining NAD+, NMN-activated)

[1] = Activity (IC50 class), 11 point curve
[2] = Activity (μM) (IC50), 11 point curve
[3] = read-out: Activity (IC50 class), 11 point curve

| SMILES | IC50 [1] [µM] | IC50 [2] [µM] | IC50 [3] [µM] |
| --- | --- | --- | --- |
| Cc1ccc(NC(=O)[C@H]2CC[C@@H](C(F)(F)F)N2c2ccccn2)cc1-c1ncc(F)cn1 [Example 276, (2R,5S)-N-[3-(5-fluoropyrimidin-2-yl)-4-methylphenyl]-1-pyridin-2-yl-5-(trifluoromethyl) pyrrolidine-2-carboxamide] | 1 to 10 | 6.3 | – |
| Cc1ccc(NC(=O)[C@H]2[C@@H](C)CCN2c2ccccn2)cc1-c1ncc(F)cn1 [Example 277, (2R,3S)-N-[3-(5-fluoropyrimidin-2-yl)-4-methylphenyl]-3-methyl-1-pyridin-2-ylpyrrolidine-2-carboxamide] | 1 to 10 | 1.4 | – |
| Cc1ccc(NC(=O)[C@H]2CCCN2c2ccccn2)cc1-c1ncc(F)cn1 [Example 279, (2R)-N-[3-(5-fluoropyrimidin-2-yl)-4-methylphenyl]-1-pyridin-2-ylpyrrolidine-2-carboxamide] | 1 to 10 | 4.2 | – |
| Cc1ccc(NC(=O)[C@H]2CC[C@H](C)N2c2ccccn2)cc1-c1ncc(F)cn1 [Example 281, (2R,5S)-N-[3-(5-fluoropyrimidin-2-yl)-4-methylphenyl]-5-methyl-1-pyridin-2-ylpyrrolidine-2-carboxamide] | 1 to 10 | 1.3 | – |
| Cc1ccc(NC(=O)[C@H]2CC[C@@H](C)N2c2ccccn2)cc1-c1ncc(F)cn1 [Example 282, (2R,5R)-N-[3-(5-fluoropyrimidin-2-yl)-4-methylphenyl]-5-methyl-1-pyridin-2-ylpyrrolidine-2-carboxamide] | 1 to 10 | 1.2 | – |
| Cc1ccc(NC(=O)[C@H]2CC[C@@H](C)N2c2ccc(C#N)cn2)cc1-c1ncc(F)cn1 [Example 285, (2R,5R)-1-(5-cyanopyridin-2-yl)-N-[3-(5-fluoropyrimidin-2-yl)-4-methylphenyl]-5-methylpyrrolidine-2-carboxamide] | 1 to 10 | 2.2 | – |
| CC(=O)N1[C@H](C)CC[C@@H]1C(=O)Nc1ccc(C)c(-c2ncc(F)cn2)c1 [Example 286, (2R,5R)-1-acetyl-N-[3-(5-fluoropyrimidin-2-yl)-4-methylphenyl]-5-methylpyrrolidine-2-carboxamide] | 1 to 10 | 1.7 | – |
| Cc1ccc(NC(=O)[C@H]2CC[C@@H](C)N2c2ncccn2)cc1-c1ncc(F)cn1 [Example 287, (2R,5R)-N-[3-(5-fluoropyrimidin-2-yl)-4-methylphenyl]-5-methyl-1-pyrimidin-2-ylpyrrolidine-2-carboxamide] | 1 to 10 | 2.1 | – |
| Cc1ccc(NC(=O)[C@H]2C3CC(F)(F)C[C@H]32)cc1-c1cccnn1 (stereo partly drawn) [Example 288, cis-3,3-difluoro-N-(4-methyl-3-pyridazin-3-ylphenyl)bicyclo[3.1.0] hexane-6-carboxamide] | > 10 | 15 | – |
| Cc1ccc(NC(=O)[C@H]2[C@@H]3CC(F)(F)C[C@@H]32)cc1-c1cccnn1 [Example 289, trans-3,3-difluoro-N-(4-methyl-3-pyridazin-3-ylphenyl)bicyclo[3.1.0] hexane-6-carboxamide] | > 10 | 26 | – |
| Cc1ccc(NC(=O)[C@@H]2C[C@@H]2c2ccccn2)cc1-c1cccnn1 [Example 291, (1R,2S)-N-(4-methyl-3-pyridazin-3-ylphenyl)-2-pyridin-2-ylcyclopropane-1-carboxamide] | > 10 | 16 | – |
| Cc1ccc(NC(=O)[C@H]2CC[C@H]3C[C@H]3N2c2ncccn2)cc1-c1ncc(F)cn1 [Example 292, (1R,3R,6S)-N-[3-(5-fluoropyrimidin-2-yl)-4-methylphenyl]-2-pyrimidin-2-yl-2-azabicyclo[4.1.0]heptane-3-carboxamide] | 1 to 10 | 2 | – |
| Cc1ccc(NC(=O)[C@H]2C[C@@H](C(F)(F)F)CN2c2ncccn2)cc1-c1cccnn1 [Example 294, (2R,4R)-N-(4-methyl-3-pyridazin-3-ylphenyl)-1-pyrimidin-2-yl-4-(trifluoromethyl) pyrrolidine-2-carboxamide] | 1 to 10 | 9.4 | – |
| Cc1ccc(NC(=O)C2(C3CCC3)CC2)cc1-c1cccnn1 [Example 295, 1-cyclobutyl-N-(4-methyl-3-pyridazin-3-ylphenyl)cyclopropane-1-carboxamide] | > 10 | 13 | – |
| Cc1ccc(NC(=O)C(C)(C)C2CCC2)cc1-c1cccnn1 [Example 296, 2-cyclobutyl-2-methyl-N-(4-methyl-3-pyridazin-3-ylphenyl)propanamide] | 1 to 10 | 4.3 | – |
| Cc1ccc(NC(=O)[C@H]2C[C@H]2c2ccccc2)cc1-c1cccnn1 [Example 298, (1S,2R)-N-(4-methyl-3-pyridazin-3-ylphenyl)-2-phenylcyclopropane-1-carboxamide] | – | 0.6 | 0.0001 to 1 |
| Cc1ccc(NC(=O)[C@@H]2C[C@@H]2c2ccccc2)cc1-c1cccnn1 [Example 299, (1R,2S)-N-(4-methyl-3-pyridazin-3-ylphenyl)-2-phenylcyclopropane-1-carboxamide] | > 10 | 14 | – |

| SMILES | IC50 [1] [µM] | IC50 [2] [µM] | IC50 [3] [µM] |
| --- | --- | --- | --- |
| Cc1ccc(NC(=O)N2CCC3CC3CC2)cc1-c1ncc(F)cn1 (stereo not drawn) [Example 300, N-(3-(5-fluoropyrimidin-2-yl)-4-methylphenyl)-4-azabicyclo[5.1.0]octane-4-carboxamide] | 1 to 10 | 1.2 | – |
| O=C(Nc1ccc(C(F)(F)F)c(-c2ncc(F)cn2)c1)[C@H]1C[C@H]2C[C@H]2N1c1ccccn1 [Example 301, (1R,3R,5R)-N-(3-(5-fluoropyrimidin-2-yl)-4-(trifluoromethyl)phenyl)-2-(pyridin-2-yl)-2-azabicyclo[3.1.0]hexane-3-carboxamide] | 1 to 10 | 2.1 | – |
| O=C(Nc1ccc(C(F)(F)F)c(-c2ncc(F)cn2)c1)C1C2CCC1CC2 (stereo not drawn) [Example 303, N-(3-(5-fluoropyrimidin-2-yl)-4-(trifluoromethyl)phenyl) bicyclo[2.2.1]heptane-e-7-carboxamide] | – | 0.5 | 0.0001 to 1 |
| O=C(Nc1ccc(C(F)(F)F)c(-c2ncc(F)cn2)c1)N1CCCC2CC2C1 (stereo not drawn) [Example 304, N-(3-(5-fluoropyrimidin-2-yl)-4-(trifluoromethyl)phenyl)-3-azabicyclo[5.1.0]octane-3-carboxamide] | 1 to 10 | 2.4 | – |
| CNC(=O)CC12CC(C)CC(C1)N2C(=O)Nc1ccc(C)c(-c2ncc(F)cn2)c1 (stereo not drawn) [Example 305, N-(3-(5-fluoropyrimidin-2-yl)-4-methylphenyl)-3-methyl-1-(2-(methylamino)-2-oxoethyl)-6-azabicyclo[3.1.1]heptane-6-carboxamide] | – | 0.01 | 0.0001 to 1 |
| CO[C@@H]1CCCN(C(=O)Nc2ccc(C(F)(F)F)c(-c3ncc(F)cn3)c2)CC1 [Example 306, (R)-N-(3-(5-fluoropyrimidin-2-yl)-4-(trifluoromethyl)phenyl)-4-methoxyazepane-1-carboxamide] | 1 to 10 | 9.6 | – |
| CO[C@H]1CCCN(C(=O)Nc2ccc(C(F)(F)F)c(-c3ncc(F)cn3)c2)CC1 [Example 307, (S)-N-(3-(5-fluoropyrimidin-2-yl)-4-(trifluoromethyl)phenyl)-4-methoxyazepane-1-carboxamide] | > 10 | 13 | – |
| CO[C@@H]1CCCCN(C(=O)Nc2ccc(C(F)(F)F)c(-c3ncc(F)cn3)c2)C1 [Example 308, (R)-N-(3-(5-fluoropyrimidin-2-yl)-4-(trifluoromethyl)phenyl)-3-methoxyazepane-1-carboxamide] | > 10 | 32 | – |
| O=C(Nc1ccc(C(F)(F)F)c(-c2ncc(F)cn2)c1)N1C2CC3CC(C2)CC1C3 [Example 310, N-(3-(5-fluoropyrimidin-2-yl)-4-(trifluoromethyl)phenyl)-2-azaadamantane-2-carboxamide] | – | 0.7 | 0.0001 to 1 |
| O=C(Nc1ccc(C(F)(F)F)c(-c2ncc(F)cn2)c1)N1C2CCCCC1C2 [Example 311, N-(3-(5-fluoropyrimidin-2-yl)-4-(trifluoromethyl)phenyl)-7-azabicyclo[4.1.1]octane-7-carboxamide] | – | 0.1 | 0.0001 to 1 |
| O=C(Nc1ccc(C(F)(F)F)c(-c2ncc(F)cn2)c1)N1CCCCCC1 [Example 313, N-(3-(5-fluoropyrimidin-2-yl)-4-(trifluoromethyl)phenyl) azepane-1-carboxamide] | – | 0.8 | 0.0001 to 1 |
| C[C@@H]1CC2C[C@H](C1)N2C(=O)Nc1ccc(Br)c(-c2nccnn2)c1 [Example 315] | – | 0.08 | 0.0001 to 1 |
| Cc1ccc(NC(=O)[C@H]2CC[C@@H](C)N2c2ccc(F)cn2)cc1-c1ncc(F)cn1 [Example 316] | 1 to 10 | 1.7 | – |
| Cc1ccc(NC(=O)[C@H]2C[C@@H](c3ccccc3)CN2c2ncccn2)cc1-c1ncc(F)cn1 [Example 319] | 1 to 10 | 6.7 | – |
| Cc1cnc(-c2cc(NC(=O)N3[C@@H]4C[C@@H](C)C[C@H]3C4)c(F)cc2Cl)nn1 [Example 320] | – | 0.6 | 0.0001 to 1 |
| CC(=O)N1C[C@H](c2ccccc2)C[C@@H]1C(=O)Nc1ccc(C)c(-c2ncc(F)cn2)c1 [Example 321] | > 10 | 24 | – |
